One series relates to penicillin V amidase. The series can be described thus: Hydrolysis of APO to adriamycin by PVA or L6-PVA conjugate (HPLC). It counts as biochemical, Fusarium oxysporum. On the procedure:
The ability of the antibody-PVA conjugate, L6-PVA, to convert the novel prodrug, APO, to adriamycin was measured as follows: either a) PVA alone (final concentration:50 µg/ml), b) 100 µg/ml of the L6-PVA conjugate (final PVA concentration: 25 µg/ml) or c) 10 µg/ml of L6-PVA (final PVA concentration: 2.5 µg/ml) were added to a solution of APO (0.1 mM) in PBS. Each reaction was monitored by HPLC using a Phenominex C-18 column (3 µm, 4.5 x 100 mm) and a gradient elution of 20-60% tetrahydrofuran in water with 0.1% H3PO4 (1.0 ml/min, monitored at 495 nm). Under these conditions, the adriamycin eluted at 8.9 minutes and the APO eluted at 12.2 minutes.

Series [1] deals with H2981 tumor cells. The series can be described thus: 3H-thymidine uptake assay on H2981 cells, PVA conjugates with APO. To be noted: Homo sapiens; H2981 cells untreated with any conjugate. The format is cell-based. The protocol:
The in vitro cytotoxic effect of the antibody-PVA/ adriamycin prodrug combination of the invention toward H2981 tumor cells was measured using the ^3H-thymidine uptake assay described in Examples 1 and 2 above. Briefly, the H2981 tumor cells were plated into 96-well microtiter plates in IMDM (10,000 cells/well) and were allowed to attached for 18 h at 37°C. The antibody-PVA conjugates, L6-PVA or 1F5-PVA, were then added at a concentration of 10 µg/ml of antibody and the plates were incubated for 30 min at 4°C. The wells were then washed four times with IMDM and APO was added at varying concentrations in IMDM. After two h, the wells were again washed, IMDM was added and the cells were left for 18 h at 37°C. At that point, ^3H-thymidine was added (1 µCi per well) and after 6 h, the plates were frozen at -70°C to detach the cells. After thawing, the cells were harvested onto glass fiber filters. The incorporation of ^3H-thymidine was measured in a Beckman 3801 scintillation counter and compared to cells treated with APO or adriamycin (ADM) alone.

Another series deals with H3347 tumors. Kind of series: In vivo antitumor effect, conjugate/etoposide phosphate, s.c. H3347 tumors. Also on record: species or system nude mice. Particulars: for antitumor effect on tumor growth: Figure 11, conjugates i.p. 18-24 h prior to EP; for tolerability in the animals: nude mice, maximum tolerated doses; for RESPONSE complete / RESPONSE partial / RESPONSE progression / RESPONSE stable: number of 16 tumors in each group, 23 days after tumor implant. On the procedure:
First, Balb/C nu/nu female mice (4-6 wk old) (obtained from Life Sciences, St. Petersburg, Florida) were injected with 10^7 H3347 tumor cells subcutaneously (s.c.) in the left and right hind flanks. The tumor cells were obtained from in vitro cultures that had been suspended by treatment for 2 min with trypsin (0.5 g/l) and EDTA (0.2 g/l). The cells were washed twice with IMDM and incubated for 1 h at 37°C in IMDM with 10% fetal calf serum. The cells were washed, suspended in PBS, and kept at 4°C prior to injection. Both the localization and therapy studies described herein were initiated when the tumors reached an average size of 225 mm^3.
Therapy experiments were performed on nude mice that had s.c. tumors approximately 225 mm^3 in volume. The conjugates, L6-AP and 1F5-AP, were administered (i.p.) 18-24 h prior to treatment with EP. Tumor growth was compared to that in untreated mice and in mice treated with maximum tolerated doses of etoposide or EP alone.
More particularly, a group of 8 nude mice with bilateral H3347 tumors was treated with either etoposide (0.2 ml containing 1.2 mg etoposide in 2:3 DMSO:H2O) or EP (0.2 ml containing 2 mg EP in H2O) alone or with L6-AP (0.1 ml containing 300 µg antibody in PBS) or 1F5-AP (0.1 ml containing 300 µg antibody in PBS) followed by EP treatment Each experiment contained a control group of mice that was untreated. Tumor volumes were estimated at various days post tumor implant, using the formula: ([(perpendicular width)^2 /2)] X longest length [formula]

Series [2] in a line: Stability of aqueous solutions of etoposide prodrugs. The format is physicochemical. On the procedure: For example, either AP alone or the antibody-enzyme conjugate, L6-AP, produced as described above (final AP concentration 5 µg/ml) were added to a solution of etoposide-4'-phosphate (0.1 mM) in Tris buffer (100 mM) containing MgCl2 (1 mM) and ZnCl2 (0.1 mM) at pH 7.0. The reaction was monitored by HPLC using an IBM C-18 column (3 µ, 4.5 x 100 mm) and 50% aqueous methanol as eluant (0.5 ml/min, monitored at 254 nm). […] Aqueous solutions of etoposide phosphate or etoposide thiophosphate were stable for at least 8 hours at room temperature and for several days at 4°C.

The subject of another series is Alkaline phosphatase. Kind of series: Hydrolysis of etoposide phosphate prodrugs by AP or L6-AP conjugate (HPLC). Particulars: for hydrolysis by alkaline phosphatase, relative rate: Figure 5.
Series [3] relates to H2981 tumor cells.
In series [4] the test system is H3347 tumor cells. The series can be described thus: Clonogenic cytotoxicity (colony inhibition) assay. To be noted: Homo sapiens, 15 hours drug exposure, colonies counted 7-10 days later. It counts as cell-based. The protocol:
The clonogenic cytotoxicity assay we used was the colony inhibition assay described by I. Hellstrom et al., "Colony Inhibition And Cytotoxicity Assays," in In Vitro Methods In Cell-Mediated Immunity, Bloom and Glade (ed.s), pp.- 409-14 (1971). The cells used to detect cytotoxicity were the H3347 tumor cells described above. Both the L6-AP and 96.5-AP conjugates were tested for their ability to convert prodrug into the free drug.
Briefly, the H3347 cells (10^6/ml) were suspended in IMDM growth media (containing 10 µg/ml of each immunoconjugate based on antibody concentration) and incubated for 30 min at 37°C. The cells were washed twice, resuspended in IMDM, and the drug or prodrug in medium was added. Incubation at 37°C was continued for 15 hours. After washing twice, the cells were plated out and the number of colonies (>8 cells/colony) were counted 7-10 days later.

In series [5] the test system is H3347 tumor cells. Kind of series: 3H-thymidine uptake assay on H3347 cells. It counts as cell-based, human.
Series [6] can be described thus: Relative toxicities of MOH and MOP in mice. Also noted: species or system Balb C nu/nu mice. Particulars: mouse, in vivo, ip. The protocol:
Prior to investigating the in vivo antitumor activity of MOP in combination with the L6-AP conjugate the relative toxicities of the prodrug and its released active derivative, MOH, were determined in Balb C nu/nu mice. […] Total amounts of up to 40 mg/kg of MOH and 100 mg/kg of MOP were well tolerated if given in 4 equal doses over a 25 day period.

The next series deals with H2981 tumor. Kind of series: In vivo antitumor effect, conjugate/mitomycin prodrug and MOP/EP combinations, s.c. H2981 tumor. Also noted: species or system nude Balb C nu/nu female mice. On the procedure: Therapy studies were then performed on nude Balb C nu/nu female mice (6 mice per treatment group) (4-6 wk old) obtained from Life Sciences (St. Petersburg, Fla.) that had been implanted (s.c., right hind flank) with a H2981 tumor obtained from in vivo sourcing. The experiments were run when the tumors reached approximately 100 mm^3 in volume. The L6-AP and 1F5-AP conjugates (0.1 ml containing 250 µg antibody in PBS) were each administered (i.p.) 18-24 h prior to treatment with MOP (0.2 ml containing 0.6 mg MOP in H2O). Tumor growth was compared to that observed in untreated mice and in mice treated with maximum tolerated doses of MOP (0.2 ml containing 0.6 mg MOP in H2O) or MOH (0.2 ml containing 0.2 mg MOH in H2O) alone.
The prodrugs, EP and MOP, were prepared as described in Examples 1 and 2, respectively. Preparation of the L6-AP and 1F5-AP immunoconjugates is described in Example 1. The in vivo studies on nude mice were carried out as described in Examples 1 and 2 above. Thus, nude mice that had been implanted with a H2981 tumor were pre-exposed to the L6-AP or 1F5-AP conjugate 18-24 h prior to treatment with a combination of MOP/EP (0.2 ml containing 1 mg EP and 0.3 mg MOP in H2O). Tumor growth was compared to that observed in untreated mice and in mice treated with the MOP/EP combination alone.

Series [7] deals with H2981 tumor cells. The series can be described thus: cells. To be noted: Homo sapiens.

Where two headings read alike, the source gives them in different places.

For the molecule `COc1cccc2c1C(=O)c1c(O)c3c(c(O)c1C2=O)C[C@@](O)(C(=O)CO)C[C@@H]3O[C@H]1C[C@H](NC(=O)COc2ccc(O)cc2)[C@H](O)[C@H](C)O1` [APO, N-(p-hydroxyphenoxyacetyl)adriamycin], in the series on penicillin V amidase (L6-PVA conjugate at 10 µg/ml (2.5 µg/ml of PVA)), the “time to effect this level of hydrolysis (at least 80%)” value turned out to be 120 min. Further, the “hydrolysis of APO to adriamycin” value in the series with penicillin V amidase (within 40 minutes, PVA alone 50 µg/ml or L6-PVA conjugate 100 µg/ml) is recorded as “at least 80%”. The IC50 in the series on H2981 tumor cells [1] turned out to be 2 µM.

Take `COc1cc(C2c3cc4c(cc3C(OC3OC5COC(C)OC5C(O)C3O)C3COC(=O)C23)OCO4)cc(OC)c1OP(=O)(O)O` (stereo not shown) [EP, 4'-disodium phosphate ester of etoposide]: in the series on H3347 tumors, the “antitumor effect on tumor growth” value was “greater antitumor effect than seen with etoposide itself”, the “tolerability in the animals” value was “less toxic to the animals”, the RESPONSE complete is reported as 0 and the RESPONSE partial is listed as 0. For the same molecule, in the series on H3347 tumors, the RESPONSE progression is listed as 6 and the RESPONSE stable is on record as 10. In series [2] (4°C), the “stability of aqueous solutions” value is “several days”. The “stability of aqueous solutions” value in [2] (room temperature) is “at least 8 hours”. Further, in the series on Alkaline phosphatase, the “hydrolysis by alkaline phosphatase, relative rate” value is recorded as “hydrolyzed by the enzyme more rapidly than the etoposide thiophosphate prodrug”. Besides, the “phosphate hydrolysis in the absence of enzyme” value in the series with Alkaline phosphatase (Tris buffer pH 7.0, no enzyme) is recorded as “no phosphate hydrolysis occurred”. Also, the “hydrolysis of the etoposide-4'-phosphate to etoposide” value in the series on Alkaline phosphatase (within 5 min of the start, AP free or as L6-AP conjugate, final AP concentration 5 µg/ml, prodrug 0.1 mM, pH 7.0) is recorded as “at least 85 X”. In addition, the kill with H2981 tumor cells [3] (human, h2981 cells, 30 µM) came out at 20%. Also, the IC50 in the series with H3347 tumor cells [4] worked out at 5.8 µM. In the series on H3347 tumor cells [5] (Homo sapiens, at 100 µM), this molecule gave an inhibition at 100 µM of 35%.

As to `CO[C@@]12[C@H](COC(N)=O)C3=C(C(=O)C(C)=C(N)C3=O)N1C[C@@H]1N[C@@H]12` [MMC, mitomycin C, reference compound], the IC50 with H2981 tumor cells [3] was around 1 µM.

Turning to `CO[C@@]12[C@H](COC(N)=O)C3=C(C(=O)C(C)=C(NCCO)C3=O)N1C[C@@H]1N[C@@H]12` [MOH, 7-[(2-hydroxyethyl)amino]-9a-methoxymitosane, reference compound], in [6] (two equal doses spaced 4 days apart), the LD50 was found to be 45 mg/kg. Besides, in [6] (given in 4 equal doses over a 25 day period, read-out: total amounts well tolerated), the MTD was at least 40 mg/kg. In the series with H2981 tumor (Figures 18 and 19, conjugates 18-24 h prior to prodrug), the “antitumor activity in vivo” value is “significant antitumor activities in vivo”. Also, in the series with H2981 tumor (H2981 tumor, maximum tolerated doses), the “time required to reach an average tumor volume of 750 mm^3” value is listed as 45 days. Moreover, in the series with H2981 tumor (by day 63, mitomycin derivatives (Table 3)), the “TUMOR RESPONSES PROGRESSION” value is on record as 6/6. In the series with H2981 tumor cells [7], this molecule registered an IC50 of around 1 µM.

With `COc1cc(C2c3cc4c(cc3C(OC3OC5COC(C)OC5C(O)C3O)C3COC(=O)C23)OCO4)cc(OC)c1OP(O)(O)=S` (stereo not shown) [etoposide thiophosphate, 4'-disodium thiophosphate ester of etoposide], the “stability of aqueous solutions” value in series [2] (4°C) is “several days”; in series [2] (room temperature), “at least 8 hours”. The “hydrolysis by alkaline phosphatase, relative rate” value in the series with Alkaline phosphatase is “increased stability towards hydrolysis”.

On to `COc1cc([C@@H]2c3cc4c(cc3[C@@H](O[C@@H]3O[C@@H]5CO[C@@H](C)O[C@H]5[C@H](O)[C@H]3O)[C@H]3COC(=O)[C@H]23)OCO4)cc(OC)c1O` [etoposide, reference compound], for which, in the series on H3347 tumors, the “antitumor effect on tumor growth” value is “very little effect on tumor growth”, the “tolerability in the animals” value was “higher doses were not well tolerated”, the RESPONSE complete is 0 and the RESPONSE partial stood at 0. In the series on H3347 tumors, this molecule returned an RESPONSE progression of 12 and an RESPONSE stable of 4. The same molecule gave an IC50 with H2981 tumor cells [7] of 2 µM. Also, 0.2 µM corresponded to half-maximal inhibition with H3347 tumor cells [4] (IC50). For the same molecule, the “toxicity relative to EP” value in the series on H3347 tumor cells [5] is on record as “more than 100 fold”. The same molecule displayed an IC50 in the series with H3347 tumor cells [5] (Homo sapiens, 6 h drug exposure) of 1 µM.

By IC50 is commonly meant the midpoint of a concentration-inhibition curve. As a reminder, the inhibition is how much of the control response was suppressed. A low value points to a response near the control. The term LD50 denotes the dose at which mortality reaches 50%.

The values are drawn from patent publication EP0540859B1, “Anthracycline prodrugs” (Bristol-Myers Squibb Company, priority 1987, dated 1989).
